Measurements published in the NIST ThermoML archive (doi:10.1016/j.fluid.2019.01.021).
Numbers after ± are expanded uncertainties.

Settings: Liquid, Capillary tube (Ostwald / Ubbelohde) method

## CCC(C)CC(C)(C)C (stereo unspecified) [2,2,4-trimethylhexane]
293.15 K, 100 kPa
  viscosity: 0.64 ± 0.064 mPa·s
293.15 K, 25000 kPa
  viscosity: 0.844 ± 0.084 mPa·s
293.15 K, 50000 kPa
  viscosity: 1.101 ± 0.11 mPa·s
293.15 K, 100000 kPa
  viscosity: 1.71 ± 0.17 mPa·s
293.15 K, 150000 kPa
  viscosity: 2.54 ± 0.25 mPa·s
293.15 K, 250000 kPa
  viscosity: 5.31 ± 0.56 mPa·s
293.15 K, 350000 kPa
  viscosity: 10.67 ± 1.3 mPa·s
293.15 K, 400000 kPa
  viscosity: 15 ± 2.1 mPa·s
293.15 K, 500000 kPa
  viscosity: 30.9 ± 4.8 mPa·s
293.15 K, 600000 kPa
  viscosity: 62.9 ± 12 mPa·s
293.15 K, 700000 kPa
  viscosity: 126.9 ± 29 mPa·s
293.15 K, 800000 kPa
  viscosity: 264 ± 79 mPa·s
293.15 K, 900000 kPa
  viscosity: 558 ± 220 mPa·s
293.15 K, 1000000 kPa
  viscosity: 1187 mPa·s

## CC(C)CC(C)(C)C [2,2,4-trimethylpentane]
298.15 K, 100 kPa
  viscosity: 0.48 ± 0.047 mPa·s
298.15 K, 26000 kPa
  viscosity: 0.641 ± 0.061 mPa·s
298.15 K, 50000 kPa
  viscosity: 0.809 ± 0.076 mPa·s
298.15 K, 100000 kPa
  viscosity: 1.207 ± 0.11 mPa·s
298.15 K, 200000 kPa
  viscosity: 2.35 ± 0.23 mPa·s
298.15 K, 312000 kPa
  viscosity: 4.41 ± 0.47 mPa·s
298.15 K, 407000 kPa
  viscosity: 7.7 ± 0.89 mPa·s
298.15 K, 499000 kPa
  viscosity: 12.63 ± 1.6 mPa·s
298.15 K, 600000 kPa
  viscosity: 21.3 ± 3 mPa·s
298.15 K, 700000 kPa
  viscosity: 36.4 ± 5.8 mPa·s
298.15 K, 800000 kPa
  viscosity: 61.5 ± 11 mPa·s
298.15 K, 900000 kPa
  viscosity: 104.8 ± 22 mPa·s
